{"source": "patent US8889156B2", "about": "“Calcium-binding agents induce hair growth and/or nail growth” (priority 2009, dated 2014)", "key": {"[1]": {"test": "Nucleation of hydroxyapatite on tooth dentin (SBFn/SBFg, SEM)", "parameters": "species or system human", "conditions": "nondemineralized dentin, 12.5 μM peptide", "experimental": "(§1) To determine whether applying DSS to various preparations of tissue promoted HA nucleation, that could ultimately lead to tissue remineralization, sagittally sectioned adult human teeth (obtained after extraction during normal clinical practice) were polished using a Streurs grinding wheel, and prepared for nucleation experiments. Half of the sections were demineralized with 35% phosphoric acid for 15 minutes, then rinsed thoroughly with deionized water. The other half were left untreated. All samples were then sonicated for five minutes to remove excess debris left from cutting and grinding and/or demineralization. Samples were treated with 12.5 μM 8DSS dissolved in 50 mM HEPES buffer solution (pH 7.0), buffer solution only, or left untreated. Samples were then immersed into a simulated body fluid (SBFn), meant to accelerate nucleation of hydroxyapatite (HA) crystals, for 4 hours. Following the nucleation step, samples were immersed in a magnesium and bicarbonate free solution (SBFg) in order to allow the nucleated HA crystals to grow. […] Both solutions were adjusted to pH 6.8. Crystals were grown in order to amplify the nucleated crystals for easy visualization by SEM."}, "[2]": {"test": "HA binding assay (pulldown of fluorescein-labeled peptides, Langmuir isotherm fit)", "conditions": "fit of Langmuir equation", "experimental": "Fluorescein-labeled DSS-containing peptides of various lengths were subjected to pulldown assays as follows: Samples containing varying concentrations of fluorescein-labeled peptide (0-100 μM) and a fixed amount (0.3 mg) of HA nanocrystals with a specific surface area of 100 m^2/g (Berkeley Advanced Biomaterials, Berkeley, Calif.) were prepared. Measurements were taken of the absorbance of the labeled peptide at 488 nm (the peak absorbance of the fluorescein label) before and after exposure to the HA. The amount of peptide bound was calculated by comparing the ratio of the final (Af) and initial (Ai) absorbances to the initial concentration (C0) [Cbound=(Af/Ai)C0]. Plots were generated of the amount of peptide bound per meter squared of HA surface area vs. concentration of unbound peptide at equilibrium. The resulting isotherms were fit to the Langmuir isotherm, x/m=(KANmaxCeq)/(1+KACeq), where x/m represents the molar amount of peptide bound per unit of HA surface area, KA is the affinity constant of the peptide for the HA surface (L/Mol), Nmax is the maximum surface concentration (mol/m^2), and Ceq is the molar concentration of unbound peptide at equilibrium (Calis et al. (1995) Pharm Res., 12: 1072-1076).\nIn order to quantitatively assess the strength of the DSS-HA interaction as well as to determine the roles of peptide length and sequence on binding, fluorescein-labeled, DSS-containing peptides of various lengths were subjected to pulldown assays as described in “Materials and Methods.”\nThe experimental data were fit to the Langmuir isotherm, which describes the binding of molecules to surfaces with the conditions that (1) all binding sites have the same affinity for the peptide and (2) the peptide will form a monolayer on the surface but cannot accumulate to higher levels (Atkins (1994) Physical chemistry. Freeman, New York). The excellent fit of the Langmuir isotherm to the experimental data validates these conditions, and the constants obtained from this analysis were used for comparisons between peptides. As shown in FIG. 7A and summarized in Table 6, both the binding affinity (KA) and the monolayer concentration (NMax) of the various peptides increased with the number of DSS repeats per peptide. Additionally, several variant peptides were tested (FIGS. 7B, 7C, Table 6): a peptide containing a longer side chain at the first position (4ESS (SEQ ID NO:34)), peptides containing a more sterically hindered hydroxyl group at the second and third positions (4DTT (SEQ ID NO:36), 4NTT (SEQ ID NO:38), 4ETT (SEQ ID NO:37)), peptides lacking a charged group at the first position (4NSS (SEQ ID NO:35), 8ASS (SEQ ID NO:26)), and peptides lacking hydroxyl groups at the second and third positions (DAA-8 (SEQ ID NO:40), 8NAA (SEQ ID NO:41))."}, "[3]": {"test": "Binding of labeled peptide to sagittally sectioned adult human molars (CLSM, Example 6)", "conditions": "fluorescein-labeled peptide, 10 min", "experimental": "For binding experiments, sagittally sectioned adult human molars were incubated for 10 min in a solution of 12.5 p.M 5(6)-carboxyfluorescein-labeled 6DSS (SEQ ID NO:32) peptide containing 10 mM NaCl and 50 mM HEPES, pH 7.0. Control samples were prepared without peptide. Samples were rinsed after treatment and imaged by confocal laser scanning microscopy (CLSM) with illumination by a blue Kr/Ar laser (λ=488 nm) and a FITC emission filter. To test binding of DSS-containing peptides to biological tissue, sagittally sectioned human teeth were incubated treated with 6DSS (SEQ ID NO:32) (control samples were prepared without peptide), washed, and imaged by CLSM."}, "[4]": {"test": "Binding of calcium phosphate to immobilized DSS peptides on streptavidin-coated polystyrene beads", "conditions": "biotin-conjugated peptide on beads, saturated CaHPO4 solutions", "experimental": "Streptavidin-coated polystyrene beads with an average diameter of 4 μm (Spherotech, Lake Forest, Ill.) were incubated with either biotin-conjugated 8DSS (SEQ ID NO:33) peptide or unconjugated biotin (control beads). Beads were washed with PBS to remove unbound peptide (or unbound biotin in control beads) and incubated in a solution of PBS+1 mM CaCl2+1 mM NaHPO4 for 12 days prior to imaging. […] DSS-containing peptides containing C-terminal biotin labels were then synthesized and immobilized on streptavidin-coated beads. The beads were washed and incubated in solutions containing varying concentrations of CaHPO4 as before. Consistent with previous observations for the dentin phosphoproteins/phosphosphoryns as well as other phosphoproteins (Saito et al. (1997) Bone 21: 305-311; Saito et al. (2000) J Bone Miner Res., 15: 1615-1619), these immobilized peptides caused coaggregation of the beads with particles of amorphous CaHPO4 and eventually led to the deposition of crystalline material around the bead. […] By comparison, in the biotin-blocked control sample, nearly all beads were unaggregated and unassociated with precipitate (FIG. 9, panel B)."}, "[5]": {"test": "Binding of labeled peptides to carious lesions in teeth (CLSM)", "parameters": "species or system human", "conditions": "labeled peptide, settings optimized per sample", "excerpt": "Sections of human teeth containing obvious carious lesions, which consist of demineralized enamel, were polished and exposed to 5(6)-carboxyfluorescein-labeled DSS peptides and variants. The sections were washed extensively and imaged by CLSM using blue laser illumination (A=488 nm) and a FITC emission filter, with microscope and camera settings adjusted for each sample to optimize the signal detected from each peptide. The images were examined to identify the relative levels of peptide binding in healthy versus carious tissue. […] Given their ability to remineralize at sites of enamel degradation, they can also be used to initiate remineralization at sites of enamel degradation such as caries or injury sites without causing inappropriate nucleation on healthy tissue surfaces."}, "[6]": {"test": "Nucleation of hydroxyapatite on tooth enamel (SBFn/SBFg, SEM)", "parameters": "species or system human", "conditions": "demineralized enamel, 12.5 μM peptide", "experimental": "as §1"}}}
{"substance": "DSS DSS DSSDSS DSS DSS DSS DSS (DSSDSSDSSDSSDSSDSSDSSDSS; synthetic calcium-binding peptide 8DSS)", "values": [{"measurement": "crystal growth (nucleation) on dentin", "setting": "[1]", "result": "the most significant growth"}, {"measurement": "Nmax (maximum monolayer surface concentration)", "setting": "[2]", "result": "8.2 × 10^−8 ± 6 × 10^−9 mol/m^2"}, {"measurement": "KA (binding affinity for HA)", "setting": "[2]; fluorescein-labeled peptide 0-100 μM, 0.3 mg HA nanocrystals", "result": "290,000 ± 70,000 M^−1"}, {"measurement": "binding to dentin", "setting": "[3]", "result": "binds tightly to the dentin"}, {"measurement": "binding to enamel", "setting": "[3]", "result": "binding to the enamel almost completely absent"}, {"measurement": "aggregation/accretion of calcium phosphate by immobilized peptide", "setting": "[4]", "result": "effectively aggregate amorphous calcium phosphate"}, {"measurement": "specificity of binding to carious lesions versus healthy enamel", "setting": "[5]", "result": "highly specific binding to carious lesions"}, {"measurement": "strength of staining of carious lesions", "setting": "[5]", "result": "exceptionally strong staining of carious lesions"}, {"measurement": "crystal growth (nucleation) on enamel", "setting": "[6]", "result": "significant crystal growth"}]}
